Measurements taken from the supplement of paper PMC10307832.

Key:
Assay in all cases: relative viability (nuclei count vs DMSO), 5 days (fraction); higher = more cells survive
[1] = compound: C1=CC2=NC=CN=C2C=C1/C=C/3\C(=O)NC(=O)S3 + O=C(c1cc(Cc2n[nH]c(=O)c3ccccc23)ccc1F)N1CCN(C(=O)C2CC2)CC1 [Olaparib] (partner 8 µM)
Outline: (§1)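 The day after seeding in 1536-well plates, lung cancer cell lines were treated by pin tool with a single drug, or with a fixed anchor-drug dose together with five library-drug doses (not always all listed) in √10 steps. After 5 days, a combined fix-and-stain solution (final 0.05% Triton X-100, 1% formaldehyde, 1 ug/ml Hoechst) was added. Nuclei counted on 4× images gave relative viability as treated counts over vehicle counts, reported as the median of duplicate plates.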

[2] = compound: CCN1CCN(c2ccc(Nc3cc(N(C)C(=O)Nc4c(Cl)c(OC)cc(OC)c4Cl)ncn3)cc2)CC1 [BGJ398] + O=C(CCCCCCC(=O)Nc1ccccc1)NO [Vorinostat] (partner 1 µM)
Outline: as §1

[3] = compound: C1=CC2=NC=CN=C2C=C1/C=C/3\C(=O)NC(=O)S3 + Nc1nc2[nH]cc(CCc3ccc(C(=O)N[C@@H](CCC(=O)O)C(=O)O)cc3)c2c(=O)[nH]1 [Pemetrexed] (partner 0.2 µM)
Outline: as §1

[4] = compound: CCN1CCN(c2ccc(Nc3cc(N(C)C(=O)Nc4c(Cl)c(OC)cc(OC)c4Cl)ncn3)cc2)CC1 [BGJ398] + CS(=O)(=O)N1CCN(Cc2cc3nc(-c4cccc5[nH]ncc45)nc(N4CCOCC4)c3s2)CC1 [Pictilisib] (partner 1 µM)
Outline: as §1

LOU-NH91
relative viability ([1]; first compound 0.02 µM): 0.845
relative viability ([1]; first compound 0.06325 µM): 0.925
relative viability ([1]; first compound 0.2 µM): 0.892
relative viability ([1]; first compound 0.6325 µM): 0.883
relative viability ([1]; first compound 2 µM): 0.85
relative viability ([2]; first compound 0.01 µM): 0.896
relative viability ([2]; first compound 0.03162 µM): 0.896
relative viability ([2]; first compound 0.1 µM): 0.957
relative viability ([2]; first compound 0.3162 µM): 0.748
relative viability ([2]; first compound 1 µM): 0.883
relative viability ([3]; first compound 0.02 µM): 0.376
relative viability ([3]; first compound 0.06325 µM): 0.326
relative viability ([3]; first compound 0.2 µM): 0.391
relative viability ([3]; first compound 0.6325 µM): 0.399
relative viability ([3]; first compound 2 µM): 0.407
relative viability ([4]; first compound 0.01 µM): 0.515
relative viability ([4]; first compound 0.03162 µM): 0.524
relative viability ([4]; first compound 0.1 µM): 0.52
relative viability ([4]; first compound 0.3162 µM): 0.484
relative viability ([4]; first compound 1 µM): 0.453

LU99A
relative viability ([1]; first compound 0.02 µM): 0.28
relative viability ([1]; first compound 0.06325 µM): 0.416
relative viability ([1]; first compound 0.2 µM): 0.276
relative viability ([1]; first compound 0.6325 µM): 0.243
relative viability ([1]; first compound 2 µM): 0.26
relative viability ([2]; first compound 0.01 µM): 0.472
relative viability ([2]; first compound 0.03162 µM): 0.437
relative viability ([2]; first compound 0.1 µM): 0.542
relative viability ([2]; first compound 0.3162 µM): 0.451
relative viability ([2]; first compound 1 µM): 0.486
relative viability ([3]; first compound 0.02 µM): 0.167
relative viability ([3]; first compound 0.06325 µM): 0.131
relative viability ([3]; first compound 0.2 µM): 0.165
relative viability ([3]; first compound 0.6325 µM): 0.176
relative viability ([3]; first compound 2 µM): 0.166
relative viability ([4]; first compound 0.01 µM): 0.281
relative viability ([4]; first compound 0.03162 µM): 0.314
relative viability ([4]; first compound 0.1 µM): 0.302
relative viability ([4]; first compound 0.3162 µM): 0.307
relative viability ([4]; first compound 1 µM): 0.261

NCI-H522
relative viability ([1]; first compound 0.02 µM): 0.593
relative viability ([1]; first compound 0.06325 µM): 0.561
relative viability ([1]; first compound 0.2 µM): 0.723
relative viability ([1]; first compound 0.6325 µM): 0.677
relative viability ([1]; first compound 2 µM): 0.545
relative viability ([2]; first compound 0.01 µM): 0.926
relative viability ([2]; first compound 0.03162 µM): 0.802
relative viability ([2]; first compound 0.1 µM): 0.935
relative viability ([2]; first compound 0.3162 µM): 1.01
relative viability ([2]; first compound 1 µM): 0.888
relative viability ([3]; first compound 0.02 µM): 1
relative viability ([3]; first compound 0.06325 µM): 0.871
relative viability ([3]; first compound 0.2 µM): 1.12
relative viability ([3]; first compound 0.6325 µM): 0.925
relative viability ([3]; first compound 2 µM): 0.747

NCI-H727
relative viability ([1]; first compound 0.02 µM): 0.852
relative viability ([1]; first compound 0.06325 µM): 0.579
relative viability ([1]; first compound 0.2 µM): 0.637
relative viability ([1]; first compound 0.6325 µM): 0.695
relative viability ([1]; first compound 2 µM): 0.538
relative viability ([2]; first compound 0.01 µM): 1.06
relative viability ([2]; first compound 0.03162 µM): 1.26
relative viability ([2]; first compound 0.1 µM): 1.21
relative viability ([2]; first compound 0.3162 µM): 1.22
relative viability ([2]; first compound 1 µM): 0.858
relative viability ([4]; first compound 0.01 µM): 0.455
relative viability ([4]; first compound 0.03162 µM): 0.504
relative viability ([4]; first compound 0.1 µM): 0.176
relative viability ([4]; first compound 0.3162 µM): 0.316
relative viability ([4]; first compound 1 µM): 0.293

NCI-H1299
relative viability ([1]; first compound 0.02 µM): 1.01
relative viability ([1]; first compound 0.06325 µM): 0.961
relative viability ([1]; first compound 0.2 µM): 1.01
relative viability ([1]; first compound 0.6325 µM): 0.928
relative viability ([1]; first compound 2 µM): 1.01
relative viability ([4]; first compound 0.01 µM): 0.742
relative viability ([4]; first compound 0.03162 µM): 0.807
relative viability ([4]; first compound 0.1 µM): 0.847
relative viability ([4]; first compound 0.3162 µM): 0.827
relative viability ([4]; first compound 1 µM): 0.965

NCI-H1563
relative viability ([3]; first compound 0.02 µM): 0.753
relative viability ([3]; first compound 0.06325 µM): 0.684
relative viability ([3]; first compound 0.2 µM): 0.916
relative viability ([3]; first compound 0.6325 µM): 0.781
relative viability ([3]; first compound 2 µM): 0.749
relative viability ([4]; first compound 0.01 µM): 0.66
relative viability ([4]; first compound 0.03162 µM): 0.612
relative viability ([4]; first compound 0.1 µM): 0.512
relative viability ([4]; first compound 0.3162 µM): 0.479
relative viability ([4]; first compound 1 µM): 0.475

NCI-H1648
relative viability ([1]; first compound 0.02 µM): 0.795
relative viability ([1]; first compound 0.06325 µM): 0.547
relative viability ([1]; first compound 0.2 µM): 0.886
relative viability ([1]; first compound 2 µM): 0.563
relative viability ([2]; first compound 0.01 µM): 1.6
relative viability ([2]; first compound 0.1 µM): 0.363
relative viability ([2]; first compound 0.3162 µM): 0.46
relative viability ([2]; first compound 1 µM): 0.369
relative viability ([3]; first compound 0.02 µM): 0.648
relative viability ([3]; first compound 0.06325 µM): 0.576
relative viability ([3]; first compound 0.2 µM): 0.649
relative viability ([3]; first compound 2 µM): 0.777

NCI-H1703
relative viability ([1]; first compound 0.02 µM): 0.428
relative viability ([1]; first compound 0.06325 µM): 0.405
relative viability ([1]; first compound 0.2 µM): 0.434
relative viability ([1]; first compound 0.6325 µM): 0.27
relative viability ([1]; first compound 2 µM): 0.322
relative viability ([4]; first compound 0.01 µM): 0.233
relative viability ([4]; first compound 0.03162 µM): 0.198
relative viability ([4]; first compound 0.1 µM): 0.21
relative viability ([4]; first compound 0.3162 µM): 0.218
relative viability ([4]; first compound 1 µM): 0.242

NCI-H1792
relative viability ([1]; first compound 0.02 µM): 0.319
relative viability ([1]; first compound 0.2 µM): 0.347
relative viability ([1]; first compound 0.6325 µM): 0.408
relative viability ([1]; first compound 2 µM): 0.315
relative viability ([3]; first compound 0.02 µM): 0.755
relative viability ([3]; first compound 0.2 µM): 0.756
relative viability ([3]; first compound 0.6325 µM): 0.831
relative viability ([3]; first compound 2 µM): 0.47
relative viability ([4]; first compound 0.01 µM): 0.229
relative viability ([4]; first compound 0.03162 µM): 0.32
relative viability ([4]; first compound 0.1 µM): 0.26
relative viability ([4]; first compound 0.3162 µM): 0.238
relative viability ([4]; first compound 1 µM): 0.138

NCI-H2342
relative viability ([1]; first compound 0.02 µM): 0.396
relative viability ([1]; first compound 0.06325 µM): 0.403
relative viability ([1]; first compound 0.2 µM): 0.449
relative viability ([1]; first compound 0.6325 µM): 0.415
relative viability ([1]; first compound 2 µM): 0.373
relative viability ([2]; first compound 0.01 µM): 0.845
relative viability ([2]; first compound 0.03162 µM): 0.703
relative viability ([2]; first compound 0.1 µM): 0.959
relative viability ([2]; first compound 0.3162 µM): 0.711
relative viability ([2]; first compound 1 µM): 0.801
relative viability ([3]; first compound 0.02 µM): 0.615
relative viability ([3]; first compound 0.06325 µM): 0.859
relative viability ([3]; first compound 0.2 µM): 0.713
relative viability ([3]; first compound 0.6325 µM): 0.759
relative viability ([3]; first compound 2 µM): 0.644

SW 900
relative viability ([1]; first compound 0.02 µM): 0.789
relative viability ([1]; first compound 0.06325 µM): 0.769
relative viability ([1]; first compound 0.2 µM): 0.884
relative viability ([1]; first compound 2 µM): 0.727
relative viability ([2]; first compound 0.01 µM): 0.534
relative viability ([2]; first compound 0.03162 µM): 0.425
relative viability ([2]; first compound 0.1 µM): 0.562
relative viability ([2]; first compound 0.3162 µM): 0.261
relative viability ([2]; first compound 1 µM): 0.24
relative viability ([3]; first compound 0.02 µM): 0.491
relative viability ([3]; first compound 0.06325 µM): 0.471
relative viability ([3]; first compound 0.2 µM): 0.481
relative viability ([3]; first compound 2 µM): 0.487
